Experimental data from patent US20260007613A1, “LONG-ACTING LOW-TOXICITY NOVEL CATIONIC LIPID COMPOUNDS AND COMPOSITION THEREOF” (BEIJING YOUCAREKECHUANG PHARMACEUTICAL TECHNOLOGY CO., LTD., priority 2023, published 2026).
Several values for one entry are separate records, joined by “and”; a condition that tells them apart may be missing. Equal values may be shown once.

Assays:
[1] = Particle size and polydispersity index (PDI) of lipid nanoparticles by dynamic light scattering; assay type: physicochemical; conditions: LNP formulation prepared from the cationic lipid, 25° C.
Description: The particle size and polydispersity index (PDI) were determined by dynamic light scattering using Malvern laser particle size analyzer.
10 μL of the liposome solution was weighed, diluted to 1 mL with RNase-free deionized water, and added to the sample pool. Each sample was measured in triplicate. The measurement conditions were: […] scattering angle, and 25° C.

female BALB/C mice = experiment: Live imaging in mice: protein expression of Fluc-mRNA delivered by LNP formulations; assay type: in vivo; conditions: for average radiation intensity, times that of ALC-0315: comparator ALC-0315; for average radiation intensity, times that of HHMA: comparator HHMA; for average radiation intensity, times that of SM-102: comparator SM-102; for expression of mRNA in mice, times that of YK-302: comparator YK-302; for expression amount, times that of YK-321: comparator YK-321; for average radiation intensity, times that of compound 21: comparator compound 21; for average radiation intensity, times that of compound 23: comparator compound 23
Procedure, shortened: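 Female BALB/C mice (4-6 weeks, 17-19 g) received LNP-formulated Fluc-mRNA […] intramuscularly. At 6 h, 24 h, 48 h and 7 d, luciferase substrate given intraperitoneally, and after 5 min average radiance measured by IVIS whole-body imaging.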

293T cells [2] = experiment: Fluorescent detection of Fluc-mRNA (cell transfection efficiency of LNP formulations); assay type: cell-based
Procedure, shortened: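 293T cells were seeded at 10,000/well and cultured overnight, then given LNP carrying […] Fluc-mRNA (cationic:neutral:structured:polymer-conjugated lipid 49:10:39.5:1.5 molar) for 24 h. Luminescence was developed with […] and imaged on IVIS.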

293T cells [3] = experiment: Cell survival rate determination (CCK-8); assay type: cell-based; conditions: difference of survival rates
Procedure, shortened: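 293T cells plated at 10,000/well (96-well), adhered overnight, then exposed 24 h to Fluc-mRNA LNP (cationic:neutral:structured:PEG-lipid 49:10:39.5:1.5) or Lipofectamine 3000. Viability by CCK-8, 1 h incubation, absorbance at 450 nm.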

liver = experiment: Distribution of liposomes in mice: protein expression in the liver (live imaging); assay type: in vivo; conditions: at 6 h
Procedure, shortened: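 Female BALB/C mice (4–6 weeks, 17–19 g) received LNP carrying […] Fluc-mRNA intramuscularly. At 6 h, 24 h, 48 h and 7 d, the luciferase substrate was given intraperitoneally. After 5 min of free movement, average radiance was imaged with IVIS Spectrum.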

For `CCCCCCC(CCCCCC)CCOC(=O)CCCCCCN(CCCCCCC(=O)OCCC(CCCCCC)CCCCCC)C[C@H](O)CN(CCO)CCO` [YK-319], the “PDI (%)” value [1] was 11.7%, the “Particle size (nm)” value [1] was 200 nm and the “average radiation intensity, times that of ALC-0315” value (female BALB/C mice; 6 h) was 9.53 times. The “average radiation intensity, times that of HHMA” value (female BALB/C mice; 6 h) was 12.64 times, the “average radiation intensity, times that of SM-102” value (female BALB/C mice; 6 h) was 11.74 times and the “expression of mRNA in mice, times that of YK-302” value (“expression of mRNA in mice” for short) (female BALB/C mice; 6 h) was 564.51 times. For the same molecule, the “expression amount, times that of YK-321” value (female BALB/C mice; 6 h) was 15.96 times, the “average radiation intensity, times that of compound 21” value (female BALB/C mice; 6 h) was 13.49 times and the “average radiation intensity, times that of compound 23” value (female BALB/C mice; 6 h) was 13.96 times. The average radiation intensity (female BALB/C mice; 6 h after intramuscular injection) was 8230500, the “average radiation intensity, times that of ALC-0315” value (female BALB/C mice; 24 h) was 12.78 times and the “average radiation intensity, times that of HHMA” value (female BALB/C mice; 24 h) was 20.29 times. The “average radiation intensity, times that of SM-102” value (female BALB/C mice; 24 h) was 20.20 times, the “expression of mRNA in mice” value (female BALB/C mice; 24 h) was 615.26 times and the “expression amount, times that of YK-321” value (female BALB/C mice; 24 h) was 24.04 times. For the same molecule, the “average radiation intensity, times that of compound 21” value (female BALB/C mice; 24 h) was 22.16 times, the “average radiation intensity, times that of compound 23” value (female BALB/C mice; 24 h) was 23.28 times and the average radiation intensity (female BALB/C mice; 24 h after intramuscular injection) was 2433960. For the same molecule, the “average radiation intensity, times that of ALC-0315” value (female BALB/C mice; 48 h) was 22.30 times, the “average radiation intensity, times that of HHMA” value (female BALB/C mice; 48 h) was 27.27 times and the “average radiation intensity, times that of SM-102” value (female BALB/C mice; 48 h) was 27.27 times. For the same molecule, the “expression of mRNA in mice” value (female BALB/C mice; 48 h) was 866.03 times, the “expression amount, times that of YK-321” value (female BALB/C mice; 48 h) was 24.28 times and the “average radiation intensity, times that of compound 21” value (female BALB/C mice; 48 h) was 28.65 times. The “average radiation intensity, times that of compound 23” value (female BALB/C mice; 48 h) was 26.80 times, the average radiation intensity (female BALB/C mice; 48 h after intramuscular injection) was 887680 and the “average radiation intensity, times that of ALC-0315” value (female BALB/C mice; 7 d) was 14.88 times. For the same molecule, the “average radiation intensity, times that of HHMA” value (female BALB/C mice; 7 d) was 17.86 times, the “average radiation intensity, times that of SM-102” value (female BALB/C mice; 7 d) was 15.84 times and the “expression of mRNA in mice” value (female BALB/C mice; 7 d) was 273.07 times. For the same molecule, the “expression amount, times that of YK-321” value (female BALB/C mice; 7 d) was 15.92 times, the “average radiation intensity, times that of compound 21” value (female BALB/C mice; 7 d) was 16.27 times and the “average radiation intensity, times that of compound 23” value (female BALB/C mice; 7 d) was 16.80 times. For the same molecule, the average radiation intensity (female BALB/C mice; 7 d after intramuscular injection) was 104860, the “Relative light unit (RLU)” value (293T cells [2]; LNP formulation of Fluc-mRNA, 96-well plate, 24 hours) was 24467760 RLU and the “Multiples (YK-305)” value (293T cells [2]; RLU of YK-305 / RLU of the lipid of the line) was 1.12. For the same molecule, the “Multiples (YK-310)” value (293T cells [2]; RLU of YK-310 / RLU of the lipid of the line) was 1.05, the “Multiples (YK-312)” value (293T cells [2]; RLU of YK-312 / RLU of the lipid of the line) was 0.82 and the “Multiples (YK-318)” value (293T cells [2]; RLU of YK-318 / RLU of the lipid of the line, Tables 5, 7, 11) was 0.46. For the same molecule, the “Multiples (YK-319)” value (293T cells [2]; RLU of YK-319 / RLU of the lipid of the line, Tables 5, 7, 11) was 1.00, the “Ratio relative to SM-102” value (293T cells [2]; RLU of the lipid / RLU of SM-102, times that of SM-102) was 15.25 and the “cell transfection efficiency, times that of ALC-0315” value (293T cells [2]; comparator ALC-0315) was 12.03 times. The “cell transfection efficiency, times that of HHMA” value (293T cells [2]; comparator HHMA) was 12.20 times, the “cell transfection efficiency, times that of Lipofectamine 3000” value (293T cells [2]; comparator Lipofectamine 3000) was 20.63 times and the “cell transfection efficiency, times that of YK-009” value (293T cells [2]; comparator YK-009) was 4.78 times. For the same molecule, the “cell transfection efficiency, times that of YK-301” value (293T cells [2]; comparator YK-301) was 29.04 times, the “cell transfection efficiency, times that of YK-302” value (293T cells [2]; comparator YK-302) was 880.83 times and the “cell transfection efficiency, times that of YK-303” value (293T cells [2]; comparator YK-303) was 39.07 times. For the same molecule, the “cell transfection efficiency, times that of YK-304” value (293T cells [2]; comparator YK-304) was ~1100 times and 1182.82 times, the “cell transfection efficiency, times that of YK-306” value (293T cells [2]; comparator YK-306) was 11.14 times and the “cell transfection efficiency, times that of YK-307” value (293T cells [2]; comparator YK-307) was 5.37 times. The “cell transfection efficiency, times that of YK-308” value (293T cells [2]; comparator YK-308) was 2.22 times, the “cell transfection efficiency, times that of YK-309” value (293T cells [2]; comparator YK-309) was ~190 times and 195.16 times and the “cell transfection efficiency, times that of YK-311” value (293T cells [2]; comparator YK-311) was 12.46 times. The “cell transfection efficiency, times that of YK-313” value (293T cells [2]; comparator YK-313) was 28.24 times, the “cell transfection efficiency, times that of YK-314” value (293T cells [2]; comparator YK-314) was 44.70 times and the “cell transfection efficiency, times that of YK-315” value (293T cells [2]; comparator YK-315) was 15.42 times. For the same molecule, the “cell transfection efficiency, times that of YK-316” value (293T cells [2]; comparator YK-316) was 5.09 times, the “cell transfection efficiency, times that of YK-317” value (293T cells [2]; comparator YK-317) was 6.79 times and the “cell transfection efficiency, times that of YK-320” value (293T cells [2]; comparator YK-320) was 9.05 times. The “cell transfection efficiency, times that of YK-321” value (293T cells [2]; comparator YK-321) was 17.43 times, the “cell transfection efficiency, times that of compound 21” value (293T cells [2]; comparator compound 21) was 17.08 times and the “cell transfection efficiency, times that of compound 23” value (293T cells [2]; comparator compound 23) was 18.04 times. For the same molecule, the “cell survival rate higher than ALC-0315” value (293T cells [3]; comparator ALC-0315) was 24.18%, the “cell survival rate higher than HHMA” value (293T cells [3]; comparator HHMA) was 8.74% and the “cell survival rate higher than Lipofectamine 3000” value (293T cells [3]; comparator Lipofectamine 3000) was 50.20%. The “cell survival rate higher than SM-102” value (293T cells [3]; comparator SM-102) was 5.76%, the “cell survival rate higher than YK-301” value (293T cells [3]; comparator YK-301) was 22.25% and the “cell survival rate higher than YK-302” value (293T cells [3]; comparator YK-302) was 58.78%. The “cell survival rate higher than YK-303” value (293T cells [3]; comparator YK-303) was 11.89%, the “cell survival rate higher than YK-304” value (293T cells [3]; comparator YK-304) was 41.05% and the “cell survival rate higher than YK-306” value (293T cells [3]; comparator YK-306) was 33.02%. The “cell survival rate higher than YK-307” value (293T cells [3]; comparator YK-307) was 14.07%, the “cell survival rate higher than YK-308” value (293T cells [3]; comparator YK-308) was 4.22% and the “cell survival rate higher than YK-309” value (293T cells [3]; comparator YK-309) was 43.60%. For the same molecule, the “cell survival rate higher than YK-311” value (293T cells [3]; comparator YK-311) was 5.15%, the “cell survival rate higher than YK-313” value (293T cells [3]; comparator YK-313) was 6.28% and the “cell survival rate higher than YK-314” value (293T cells [3]; comparator YK-314) was 7.33%. The “cell survival rate higher than YK-315” value (293T cells [3]; comparator YK-315) was 3.93%, the “cell survival rate higher than YK-316” value (293T cells [3]; comparator YK-316) was 4.68% and the “cell survival rate higher than YK-317” value (293T cells [3]; comparator YK-317) was 16.03%. For the same molecule, the “cell survival rate higher than YK-320” value (293T cells [3]; comparator YK-320) was 4.14%, the “cell survival rate higher than YK-321” value (293T cells [3]; comparator YK-321) was 2.87% and the “cell survival rate higher than compound 21” value (293T cells [3]; comparator compound 21) was 5.00%. The “cell survival rate higher than compound 23” value (293T cells [3]; comparator compound 23) was 3.71%, the “expression amount in the liver compared with ALC-0315 and SM-102” value (liver) was “reduced” and the “protein expression in the liver” value (liver; intramuscular injection) was “had protein expression in the liver”.
